Test results from PMC10779143, “Collagen-like Osteoclast-Associated Receptor (OSCAR)-Binding Motifs Show a Co-Stimulatory Effect on Osteoclastogenesis in a Peptide Hydrogel System” (International Journal of Molecular Sciences, 2023).
Where a SMILES comes first, the peptide text is derived from it. [ ]: non-standard residue; d: D form. Hyp = O=C(O)[C@@H]1C[C@@H](O)CN1

Assays:
[1] = system: TRAP gene expression, Raw 264.7 cells; test: qRT-PCR TRAP gene expression, Raw 264.7 cells on hydrogels; format: cell-based; details: incorporated in FF/S/RGDH hydrogel, 10 ng/mL hRANKL
Description: (§1) Fmoc-FF/S (Fmoc-diphenylalanine/serine, 1:1 molar ratio) and Fmoc-FF/S/RGD (1:0.5:0.5 molar ratio) peptides were provided by Biogelx Ltd., Edinburgh, UK. Hydroxyapatite (Hap) nanopowder (formula: Ca10(PO4)6(OH)2, with average particle size <200 nm) was purchased from Sigma-Aldrich (Dorset, UK, product code: 677418) and used as received. Hydrogels made up of Fmoc-based peptides and hydroxyapatite were fabricated as described previously. Hap-decorated Fmoc-FF/S/RGD hydrogels (FF/S/RGDH) were tested in combination with OP1_Hyp, OP1_Pro, and OCol1 to evaluate the contribution of OSCAR as a co-stimulatory pathway for OCP differentiation. […]
(§2) The day after hydrogel fabrication, 2 mL of Raw 264.7 cells (4 × 10^5 cells/mL) were seeded on top of FF/S/RGDH hydrogels containing the collagen-like OSCAR-binding peptides (OP1_Hyp, OP1_Pro) or recombinant collagen-like protein (OCol1). […] After 7 days of culture, cell viability on the peptide- or protein-modified FF/S/RGDH hydrogels was evaluated by using a LIVE/DEAD assay (ThermoFisher Scientific, Swindon, UK). […] After 30 min of incubation, cells were washed 3 times in PBS and imaged using a Nikon Eclipse 50i fluorescence microscope (Tokyo, Japan) (emission wavelengths: green channel for live cells: 515 nm; red channel for dead cells: 635 nm; excitation wavelength: 495 nm). […]
(§3) Gene expression of OC markers was evaluated as previously described. […]

[2] = system: OSCAR gene expression, Raw 264.7 cells; test: qRT-PCR OSCAR gene expression, Raw 264.7 cells on hydrogels; format: cell-based; details: 10 ng/mL hRANKL, relative to GAPDH, n = 3
Description: as §1, §2, §3

CC(=O)NCC(=O)N1CCC[C@H]1C(=O)N1C[C@H](O)C[C@H]1C(=O)NCC(=O)N1CCC[C@H]1C(=O)N1C[C@H](O)C[C@H]1C(=O)NCC(=O)N1CCC[C@H]1C(=O)N1C[C@H](O)C[C@H]1C(=O)NCC(=O)N[C@@H](C)C(=O)N1C[C@H](O)C[C@H]1C(=O)NCC(=O)N1CCC[C@H]1C(=O)N[C@@H](C)C(=O)NCC(=O)N[C@@H](Cc1ccccc1)C(=O)N[C@@H](C)C(=O)NCC(=O)N1CCC[C@H]1C(=O)N1C[C@H](O)C[C@H]1C(=O)NCC(=O)N1CCC[C@H]1C(=O)N1C[C@H](O)C[C@H]1C(=O)NCC(=O)N1CCC[C@H]1C(=O)N1C[C@H](O)C[C@H]1C(N)=O [OP1_Hyp] (Ac-GP[Hyp]GP[Hyp]GP[Hyp]GA[Hyp]GPAGFAGP[Hyp]GP[Hyp]GP[Hyp]-NH2)
TRAP expression, day 3 to day 7 (comparison with literature) [1]: increased significantly between day 3 and day 7 of culture
OSCAR expression change, day 3 to day 7 [2]: increased significantly between day 3 and day 7 of culture
